System: participants with migraine
Assay: Safety: serious adverse events and adverse events of special interest in the 3×3 factorial trial
[1] = Anytime between Week 0 to Week 12, % of participants
[2] = Anytime between Week 0 to Week 12, n/N participants
[3] = Randomization, % of participants
[4] = Randomization, n/N participants

## CCC(C)(C)C(=O)O[C@H]1C[C@@H](C)C=C2C=C[C@H](C)[C@H](CC[C@@H]3C[C@@H](O)CC(=O)O3)[C@H]21 [Simvastatin, simvastatin]
12 weeks
  Subjects with any serious adverse event (SAE) in 12 weeks (n/N): 0/9
  Subjects with any serious adverse event (SAE) in 12 weeks (percent): 0.0%
[1]
  Any SAEs: (0.0%)
  Bradycardia: (0.0%)
  Falls: (0.0%)
  Feeling faint/dizziness: (33.3%)
  Flushing: (11.1%)
  Gastrointestinal complaints: (22.2%)
  Gout: (0.0%)
  Headache: (100.0%)
  Insomnia: (22.2%)
  Muscle cramps: (11.1%)
  Myalgia: (0.0%)
  Nightmares: (11.1%)
  Pedal edema: (0.0%)
  Skin rash/itching: (11.1%)
  Syncope: (0.0%)
[2]
  Any SAEs: 0/9
  Bradycardia: 0/9
  Falls: 0/9
  Feeling faint/dizziness: 3/9
  Flushing: 1/9
  Gastrointestinal complaints: 2/9
  Gout: 0/9
  Headache: 9/9
  Insomnia: 2/9
  Muscle cramps: 1/9
  Myalgia: 0/9
  Nightmares: 1/9
  Pedal edema: 0/9
  Skin rash/itching: 1/9
  Syncope: 0/9
[3]
  Any SAEs since the last visit?: (0.0%)
  Bradycardia: (0.0%)
  Falls: (11.1%)
  Feeling faint/dizziness: (22.2%)
  Flushing: (33.3%)
  Gastrointestinal complaints: (0.0%)
  Gout: (0.0%)
  Headache: (100.0%)
  Insomnia: (22.2%)
  Muscle cramps: (22.2%)
  Myalgia: (0.0%)
  Nightmares: (11.1%)
  Pedal edema: (0.0%)
  Skin rash/itching: (0.0%)
  Syncope: (0.0%)
[4]
  Any SAEs since the last visit?: 0/9
  Bradycardia: 0/9
  Falls: 1/9
  Feeling faint/dizziness: 2/9
  Flushing: 3/9
  Gastrointestinal complaints: 0/9
  Gout: 0/9
  Headache: 9/9
  Insomnia: 2/9
  Muscle cramps: 2/9
  Myalgia: 0/9
  Nightmares: 1/9
  Pedal edema: 0/9
  Skin rash/itching: 0/9
  Syncope: 0/9
Week 4, % of participants
  Any SAEs since the last visit?: (0.0%)
  Bradycardia: (0.0%)
  Falls: (0.0%)
  Feeling faint/dizziness: (22.2%)
  Flushing: (11.1%)
  Gastrointestinal complaints: (11.1%)
  Gout: (0.0%)
  Headache: (100.0%)
  Insomnia: (22.2%)
  Muscle cramps: (0.0%)
  Myalgia: (0.0%)
  Nightmares: (0.0%)
  Pedal edema: (0.0%)
  Skin rash/itching: (0.0%)
  Syncope: (0.0%)
Week 4, n/N participants
  Any SAEs since the last visit?: 0/9
  Bradycardia: 0/9
  Falls: 0/9
  Feeling faint/dizziness: 2/9
  Flushing: 1/9
  Gastrointestinal complaints: 1/9
  Gout: 0/9
  Headache: 9/9
  Insomnia: 2/9
  Muscle cramps: 0/9
  Myalgia: 0/9
  Nightmares: 0/9
  Pedal edema: 0/9
  Skin rash/itching: 0/9
  Syncope: 0/9
Week 8, % of participants
  Any SAEs since the last visit?: (0.0%)
  Bradycardia: (0.0%)
  Falls: (0.0%)
  Feeling faint/dizziness: (11.1%)
  Flushing: (11.1%)
  Gastrointestinal complaints: (11.1%)
  Gout: (0.0%)
  Headache: (88.9%)
  Insomnia: (22.2%)
  Muscle cramps: (0.0%)
  Myalgia: (0.0%)
  Nightmares: (0.0%)
  Pedal edema: (0.0%)
  Skin rash/itching: (0.0%)
  Syncope: (0.0%)
Week 8, n/N participants
  Any SAEs since the last visit?: 0/9
  Bradycardia: 0/9
  Falls: 0/9
  Feeling faint/dizziness: 1/9
  Flushing: 1/9
  Gastrointestinal complaints: 1/9
  Gout: 0/9
  Headache: 8/9
  Insomnia: 2/9
  Muscle cramps: 0/9
  Myalgia: 0/9
  Nightmares: 0/9
  Pedal edema: 0/9
  Skin rash/itching: 0/9
  Syncope: 0/9
Week 12, % of participants
  Any SAEs since the last visit?: (0.0%)
  Bradycardia: (0.0%)
  Falls: (0.0%)
  Feeling faint/dizziness: (0.0%)
  Flushing: (0.0%)
  Gastrointestinal complaints: (22.2%)
  Gout: (0.0%)
  Headache: (88.9%)
  Insomnia: (22.2%)
  Muscle cramps: (11.1%)
  Myalgia: (0.0%)
  Nightmares: (11.1%)
  Pedal edema: (0.0%)
  Skin rash/itching: (11.1%)
  Syncope: (0.0%)
Week 12, n/N participants
  Any SAEs since the last visit?: 0/9
  Bradycardia: 0/9
  Falls: 0/9
  Feeling faint/dizziness: 0/9
  Flushing: 0/9
  Gastrointestinal complaints: 2/9
  Gout: 0/9
  Headache: 8/9
  Insomnia: 2/9
  Muscle cramps: 1/9
  Myalgia: 0/9
  Nightmares: 1/9
  Pedal edema: 0/9
  Skin rash/itching: 1/9
  Syncope: 0/9
Week 13, % of participants
  Any SAEs since the last visit?: (0.0%)
  Bradycardia: (0.0%)
  Falls: (0.0%)
  Feeling faint/dizziness: (11.1%)
  Flushing: (0.0%)
  Gastrointestinal complaints: (11.1%)
  Gout: (0.0%)
  Headache: (100.0%)
  Insomnia: (11.1%)
  Muscle cramps: (22.2%)
  Myalgia: (11.1%)
  Nightmares: (11.1%)
  Pedal edema: (0.0%)
  Rebound hypertension: (0.0%)
  Skin rash/itching: (11.1%)
  Syncope: (0.0%)
Week 13, n/N participants
  Any SAEs since the last visit?: 0/9
  Bradycardia: 0/9
  Falls: 0/9
  Feeling faint/dizziness: 1/9
  Flushing: 0/9
  Gastrointestinal complaints: 1/9
  Gout: 0/9
  Headache: 9/9
  Insomnia: 1/9
  Muscle cramps: 2/9
  Myalgia: 1/9
  Nightmares: 1/9
  Pedal edema: 0/9
  Rebound hypertension: 0/9
  Skin rash/itching: 1/9
  Syncope: 0/9
Week 16, % of participants
  Any SAEs since the last visit?: (11.1%)
  Bradycardia: (0.0%)
  Falls: (11.1%)
  Feeling faint/dizziness: (22.2%)
  Headache: (77.8%)
  Muscle cramps: (0.0%)
  Pedal edema: (0.0%)
  Syncope: (0.0%)
Week 16, n/N participants
  Any SAEs since the last visit?: 1/9
  Bradycardia: 0/9
  Falls: 1/9
  Feeling faint/dizziness: 2/9
  Headache: 7/9
  Muscle cramps: 0/9
  Pedal edema: 0/9
  Syncope: 0/9
